Test results reported in US20070010671A1, “Novel quinazoline derivatives and methods of treatment related to the use thereof” (priority 2003, published 2007).

The molecules below were run against MCH receptor (Homo sapiens, UniProt Q99705) (assay: High throughput functional screening FLIPR/FDSS6000: inhibition of MCH-evoked intracellular Ca2+ changes). Details: class by percent of control at 10^-7 M or IC50.
Format: cell-based
Summary of the method: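 Cells expressing constitutively active MCH receptor, loaded with 4 μM Fluo4-AM for 1 h at 37 °C, were pretreated 3 min with compound, then challenged with MCH (50 nM for antagonist testing). MCH-evoked [Ca2+]i transients followed by FLIPR or FDSS (ex 488/em 530 nm) over 290 s.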

Row | SMILES | class
1 | CN(C)c1nc(N[C@H]2CC[C@@H](NC(=S)Nc3cc(Cl)cc(Cl)c3)CC2)nc2ccccc12 [compound 223] | 3 (Class 3: The value of percent of control at 10^−7 M was more than 60% or the value of IC50 was more than 200 nM.)
2 | CN(C)c1nc(N[C@H]2CC[C@@H](NC(=S)Nc3ccc(Br)cc3OC(F)(F)F)CC2)nc2ccccc12 [compound 372, N-[4-bromo-2-(trifluoromethoxy)phenyl]-N′-(cis-4-{[4-(dimethylamino)quinazolin-2-yl]amino}cyclohexyl)thiourea] | 1 (Class 1: The value of percent of control at 10^−7 M was less than 40% or the value of IC50 was less than 50 nM.)
3 | COc1ccc(CNC(=S)N[C@H]2CC[C@@H](Nc3nc(N(C)C)c4ccccc4n3)CC2)cc1 [compound 277, N-(cis-4-{[4-(dimethylamino)quinazolin-2-yl]amino}cyclohexyl)-N′-(4-methoxybenzyl)thiourea] | 2 (Class 2: The value of percent of control at 10^−7 M was from 40% to 60% or the value of IC50 was from 50 nM to 200 nM.)
4 | CN(C)c1nc(N[C@H]2CC[C@@H](NC(=S)Nc3ccc(Cl)cc3C(F)(F)F)CC2)nc2ccccc12 [compound 314, N-[4-chloro-2-(trifluoromethyl)phenyl]-N′-(cis-4-{[4-(dimethylamino)quinazolin-2-yl]amino}cyclohexyl)thiourea] | 1 (Class 1: The value of percent of control at 10^−7 M was less than 40% or the value of IC50 was less than 50 nM.)
5 | COc1ccc(CCNC(=S)N[C@H]2CC[C@@H](Nc3nc(N(C)C)c4ccccc4n3)CC2)cc1OC [compound 241] | 3 (Class 3: The value of percent of control at 10^−7 M was more than 60% or the value of IC50 was more than 200 nM.)
6 | CN(C)c1nc(N[C@H]2CC[C@@H](CNC(=S)Nc3c(Cl)c(Cl)cc(Cl)c3Cl)CC2)nc2ccccc12 [compound 715] | 1 (Class 1: The value of percent of control at 10^−7 M was less than 40% or the value of IC50 was less than 50 nM.)
7 | CN(C)c1nc(N[C@H]2CC[C@@H](NC(=S)NCC(c3ccccc3)c3ccccc3)CC2)nc2ccccc12 [compound 290, N-(cis-4-{[4-(dimethylamino)quinazolin-2-yl]amino}cyclohexyl)-N′-(2,2-diphenylethyl)thiourea] | 2 (Class 2: The value of percent of control at 10^−7 M was from 40% to 60% or the value of IC50 was from 50 nM to 200 nM.)
8 | CN(C)c1nc(N[C@H]2CC[C@@H](NC(=O)Nc3cc(Cl)nc(Cl)c3)CC2)nc2ccccc12 [compound 352] | 3 (Class 3: The value of percent of control at 10^−7 M was more than 60% or the value of IC50 was more than 200 nM.)
9 | CN(C)c1nc(N[C@H]2CC[C@@H](NC(=S)Nc3ccc(C(=O)O)cc3)CC2)nc2ccccc12 [compound 313] | 3 (Class 3: The value of percent of control at 10^−7 M was more than 60% or the value of IC50 was more than 200 nM.)
10 | CN(C)c1nc(N[C@H]2CC[C@@H](NC(=S)NC3CC4CCC3C4)CC2)nc2ccccc12 (relative stereo) [compound 377] | 1 (Class 1: The value of percent of control at 10^−7 M was less than 40% or the value of IC50 was less than 50 nM.)
11 | CN(C)c1nc(N[C@H]2CC[C@@H](CNC(=S)Nc3ccc(Br)cc3F)CC2)nc2ccccc12 [compound 658] | 3 (Class 3: The value of percent of control at 10^−7 M was more than 60% or the value of IC50 was more than 200 nM.)
12 | COc1cc(OC)c(NC(=O)NC[C@H]2CC[C@@H](Nc3nc(N(C)C)c4ccccc4n3)CC2)cc1Cl [compound 563] | 3 (Class 3: The value of percent of control at 10^−7 M was more than 60% or the value of IC50 was more than 200 nM.)
13 | CN(C)c1nc(N[C@H]2CC[C@@H](CNC(=S)Nc3ccc([N+](=O)[O-])cc3)CC2)nc2ccccc12 [compound 613, N-[(cis-4-{[4-(dimethylamino)quinazolin-2-yl]amino}cyclohexyl)methyl]-N′-(4-nitrophenyl)thiourea] | 2 (Class 2: The value of percent of control at 10^−7 M was from 40% to 60% or the value of IC50 was from 50 nM to 200 nM.)
14 | CN(C)c1nc(N[C@H]2CC[C@@H](NC(=S)NCCC3=CCCCC3)CC2)nc2ccccc12 [compound 358] | 2 (Class 2: The value of percent of control at 10^−7 M was from 40% to 60% or the value of IC50 was from 50 nM to 200 nM.)
15 | CN(C)c1nc(N[C@H]2CC[C@@H](NC(=S)Nc3ccc(OC(F)(F)F)cc3)CC2)nc2ccccc12 [compound 230] | 3 (Class 3: The value of percent of control at 10^−7 M was more than 60% or the value of IC50 was more than 200 nM.)

Same assay, conditions: class by percent of control at 10^-7 M or by IC50; read-out: class

Row | IC50 [nM] | SMILES
16 | 50 to 200 | CN(C)c1nc(N[C@H]2CC[C@@H](NC(=S)NC3CCCCC3)CC2)nc2ccccc12 [compound 161, N-cyclohexyl-N′-(cis-4-{[4-(dimethylamino)quinazolin-2-yl]amino}cyclohexyl)thiourea]
17 | > 200 | CN(C)c1nc(N[C@H]2CC[C@@H](NC(=O)Nc3ccc(OCc4ccccc4)cc3)CC2)nc2ccccc12 [compound 139]
18 | 50 to 200 | CN(C)c1nc(N[C@H]2CC[C@@H](CNC(=S)NC3CC4C=CC3C4)CC2)nc2ccccc12 (relative stereo) [compound 799, N-bicyclo[2.2.1]hept-5-en-2-yl-N′-[(cis-4-{[4-(dimethylamino)quinazolin-2-yl]amino}cyclohexyl)methyl]thiourea]
19 | > 200 | CN(C)c1nc(N[C@H]2CC[C@@H](CNC(=O)OCC3c4ccccc4-c4ccccc43)CC2)nc2ccccc12 [compound 884]
20 | 50 to 200 | Cc1ccc([N+](=O)[O-])c(NC(=O)N[C@H]2CC[C@@H](Nc3nc(N(C)C)c4ccccc4n3)CC2)c1C [compound 73, N-(cis-4-{[4-(dimethylamino)quinazolin-2-yl]amino}cyclohexyl)-N′-(2,3-dimethyl-6-nitrophenyl)urea]
21 | > 200 | CN(C)c1nc(N[C@H]2CC[C@@H](NC(=O)Nc3cccc(C(F)(F)F)c3F)CC2)nc2ccccc12 [compound 96]
22 | 50 to 200 | Cc1cc(C)cc(NC(=O)N[C@H]2CC[C@@H](Nc3nc(N(C)C)c4ccccc4n3)CC2)c1 [compound 127, N-(cis-4-{[4-(dimethylamino)quinazolin-2-yl]amino}cyclohexyl)-N′-(3,5-dimethylphenyl)urea]
23 | < 50 | Cc1cc(Cl)ccc1NC(=O)N[C@H]1CC[C@@H](Nc2nc(N(C)C)c3ccccc3n2)CC1 [compound 146]
24 | > 200 | Cc1noc(C)c1NC(=S)NC[C@H]1CC[C@@H](Nc2nc(N(C)C)c3ccccc3n2)CC1 [compound 817]
25 | > 200 | CN(C)c1nc(N[C@H]2CC[C@@H](NC(=S)Nc3cccc([N+](=O)[O-])c3)CC2)nc2ccccc12 [compound 188]
26 | < 50 | CN(C)c1nc(N[C@H]2CC[C@@H](NC(=O)NC3C[C@H]3c3ccccc3)CC2)nc2ccccc12 (stereo partly drawn) [compound 51, N-(cis-4-{[4-(dimethylamino)quinazolin-2-yl]amino}cyclohexyl)-N′-[(2S)-2-phenylcyclopropyl]urea]
27 | > 200 | Cc1ccc(NC(=O)N[C@H]2CC[C@@H](Nc3nc(N(C)C)c4ccccc4n3)CC2)c(C)c1 [compound 80]
28 | > 200 | COc1cc(COC(=O)NC[C@H]2CC[C@@H](Nc3nc(N(C)C)c4ccccc4n3)CC2)c([N+](=O)[O-])cc1OC [compound 868]

Same assay, conditions: class by percent of control at 10^−7 M or by IC50; read-out: class

Row | IC50 [nM] | SMILES
29 | < 50 | CN(C)c1nc(N[C@H]2CC[C@@H](C(=O)NCc3cccc(C(F)(F)F)c3)CC2)nc2cc(F)c(F)cc12 [Example 998, cis-4-{[4-(dimethylamino)-6,7-difluoroquinazolin-2-yl]amino}-N-[3-(trifluoromethyl)benzyl]cyclohexanecarboxamide]
30 | > 200 | CN(C)c1nc(N[C@H]2CC[C@@H](NC(=O)c3ccc(OCc4ccccc4)cc3)CC2)nc2ccccc12 [Example 1084, 4-(benzyloxy)-N-(cis-4-{[4-(dimethylamino)quinazolin-2-yl]amino}cyclohexyl)benzamide]
31 | < 50 | COc1ccc([C@H](C)NC(=O)[C@H]2CC[C@@H](Nc3nc(N(C)C)c4ccccc4n3)CC2)cc1 [Example 1190, cis-4-{[4-(dimethylamino)quinazolin-2-yl]amino}-N-[(1S)-1-(4-methoxyphenyl)ethyl]cyclohexanecarboxamide]
32 | > 200 | CN(C)c1nc(N[C@H]2CC[C@@H](CNC(=O)C(O)c3cc(F)ccc3F)CC2)nc2ccccc12 (relative stereo) [Example 1094, 2-(2,5-difluorophenyl)-N-[(cis-4-{[4-(dimethylamino)quinazolin-2-yl]amino}cyclohexyl)methyl]-2-hydroxyacetamide]
33 | < 50 | CN(C)c1nc(N[C@H]2CC[C@@H](NC(=O)c3cccnc3Oc3ccc(F)c(Cl)c3)CC2)nc2ccccc12 [Example 1043, 2-(3-chloro-4-fluorophenoxy)-N-(cis-4-{[4-(dimethylamino)quinazolin-2-yl]amino}cyclohexyl)nicotinamide]
34 | > 200 | CN(C)c1nc(N[C@H]2CC[C@@H](C(=O)Nc3nc4ccccc4[nH]3)CC2)nc2ccccc12 [Example 1198, cis-N-1H-benzimidazol-2-yl-4-{[4-(dimethylamino)quinazolin-2-yl]amino}cyclohexanecarboxamide]
35 | 50 to 200 | CN(C)c1nc(N[C@H]2CC[C@@H](CNC(=O)Nc3ccc(Cl)cc3)CC2)nc2ccccc12 [Example 1023, N-(4-chlorophenyl)-N′-[(cis-4-{[4-(dimethylamino)quinazolin-2-yl]amino}cyclohexyl)methyl]urea]
36 | < 50 | CN(C)c1nc(N[C@H]2CC[C@@H](C(=O)NC3c4ccccc4-c4ccccc43)CC2)nc2ccccc12 [Example 1194, cis-4-{[4-(dimethylamino)quinazolin-2-yl]amino}-N-9H-fluoren-9-ylcyclohexanecarboxamide]
37 | < 50 | CN(C)c1nc(N[C@H]2CC[C@@H](C(=O)NCc3ccccc3Br)CC2)nc2cc(F)c(F)cc12 [Example 1003, cis-N-(2-bromobenzyl)-4-{[4-(dimethylamino)-6,7-difluoroquinazolin-2-yl]amino}cyclohexanecarboxamide]
